Source: US12709731B2, “Method of producing biological material” (NTT, Inc., priority 2021, dated 2026)

How the values were obtained:
Format in all cases: cell-based
[1] = tested on: Cyanidioschyzon merolae; assay: Test 1: color of microorganism-containing liquid after suspension culture with regulator; conditions: for contribution to a reduction of light-harvesting pigments: added to MA2 culture medium, 18 hours culture, judged from color in FIG. 3; for color of the microorganism-containing liquid after cultivation (FIG. 3): MA2 culture medium, light condition, 18 hours after addition
Method: Unicellular red algae were cultured in suspension under a light condition and a regulator was added thereto. An MA2 culture medium was used as a culture medium. Cyanidioschyzon merolae were used as unicellular red algae. Dimethyl 2-oxoglutarate was used as the regulator. Then, after the regulator was added, the culture was further continued for 18 hours.
The above-mentioned cultivation was carried out for each case where the final concentrations of dimethyl 2-oxoglutarate were adjusted to 10, 20, 40 and 80 mmmol/L (=mM). In addition, cultivation was also carried out in a similar manner except that the addition of dimethyl 2-oxoglutarate was omitted.
Thereafter, each of microorganism-containing liquids containing unicellular red algae and the culture medium was imaged.
In addition, cultivation was carried out in a similar manner except that 2-oxoglutaric acid was used instead of using dimethyl 2-oxoglutarate. Thereafter, each of dispersion microorganism-containing liquids containing unicellular red algae and the culture medium was imaged.
FIG. 3 is an image obtained by imaging the microorganism-containing liquids after cultivation. In FIG. 3, “2-OG” and “dimethyl 2-OG” represent 2-oxoglutaric acid and dimethyl 2-oxoglutarate, respectively.

[2] = tested on: Cyanidioschyzon merolae; assay: Test 2: amount of chlorophyll a in microorganism-containing liquid after addition of regulator; conditions: final concentration 2 mmol/L; immediately before, 6 hours and 24 hours after addition; average of three independent tests; control increased
Method: Unicellular red algae were cultured in suspension under a light condition and a regulator was added thereto. An MA2 culture medium was used as a culture medium. Cyanidioschyzon merolae were used as unicellular red algae. Dimethyl 2-oxoglutarate was used as the regulator. The regulator was added so that the final concentration of dimethyl 2-oxoglutarate was 2 mmol/L. After the regulator was added, the cultivation was further continued. Then, the amounts of chlorophyll a contained in the microorganism-containing liquids were determined immediately before the regulator was added, 6 hours after the regulator was added, and 24 hours after the regulator was added. In addition, in parallel with the cultivation, cultivation was carried out as described above in a similar manner except that no regulator was added. The amount of chlorophyll a contained in the microorganism-containing liquid was also determined in the same manner as described above. FIG. 4 is a graph showing an example of the effect of the addition of the regulator on the amounts of chlorophyll a. […] Furthermore, “dimethyl 2-OG” indicates the results obtained for unicellular red algae cultured by adding dimethyl 2-oxoglutarate to the culture medium as a regulator.

[3] = tested on: Cyanidioschyzon merolae; assay: Test 3: amount of phycocyanin in microorganism-containing liquid after addition of regulator; conditions: final concentration 2 mmol/L; every culture time as in test 2 (0, 6, 24 hours); average of three independent tests; control increased
Method: Cultivation was carried out in a similar manner to that in the test 2 and the amounts of phycocyanin contained in the microorganism-containing liquids were determined in every culture time. FIG. 5 is a graph showing an example of the effect of the addition of a regulator on the amount of phycocyanin. […] Furthermore, “dimethyl 2-OG” indicates the results obtained for unicellular red algae cultured by adding dimethyl 2-oxoglutarate to the culture medium as a regulator.

[4] = final concentrations 10, 20, 40 and 80 mmmol/L (=mM), compared with no regulator added

Structure (SMILES) | contribution to a reduction of light-harvesting pigments [1] | color of the microorganism-containing liquid after cultivation (FIG. 3) [1, 4] | color of the microorganism-containing liquid after cultivation (FIG. 3) ([1]; final concentration 20 mmol/L or higher) | amount of chlorophyll a contained in the microorganism-containing liquid (FIG. 4) [2] | amount of phycocyanin contained in the microorganism-containing liquid (FIG. 5) [3]
O=C(O)CCC(=O)C(=O)O [2-oxoglutaric acid, 2-Oxoglutaric acid, reference compound] | little contributed | the same color as that in the case with no regulator added | – | – | –
COC(=O)CCC(=O)C(=O)OC [dimethyl 2-oxoglutarate] | greatly contributes | lighter than those of the microorganism-containing liquids with no regulator added | substantially colorless | decreased according to the culture time | decreased according to the culture time
